Experimental data published in US5348956A, “Substituted cyclopropylamino-1,3,5-triazines” (UCB S.A., priority 1991, dated 1994).

Legend:
[1] = tested on: bronchospasm induced by serotonin; test: bronchospasmolytic activity (Konzett and Roessler), bronchospasm induced by serotonin; assay type: in vivo, Dunkin-Hartley guinea-pig; settings: Cavia porcellus; intravenous; serotonin-induced bronchospasm; read-out: Doses (ID50), Serotonin
Experimental: (§1) This activity was measured in the Dunkin-Hartley guinea-pig by the method of H. KONZETT and […] (Naunyn Schmiedebergs Arch. exp. Path. […] The anesthetized (urethane) and curarized (gallamine) guinea-pig is placed under assisted respiration. The endotracheal pressure is recorded. […] The compound to be tested is also administered intravenously two minutes before the administration of the spasmogen and then in 3 to 4 cumulative doses in increasing amounts at intervals of 15 minutes. Six animals per compound to be tested and per spasmogen are used.

[2] = tested on: cAMP in PMN granulocytes; test: increase in the level of cAMP in PMN granulocytes; assay type: cell-based, Rat; settings: […]10^-6 mole per liter; PGE1 10^-6 mole/liter; control 4.3
Text: Polymorphonuclear neutrophil granulocytes (PMN) are cells which are mobilized during inflammatory phenomena and which can be stimulated by various compounds, such as, for example, formylmethionyl-leucylphenylalanine (FMLP) or prostaglandins E (PGE1). The PMN granulocytes respond to these extracellular stimuli with an activation of the oxygen metabolism with release of toxic oxygenated metabolites. An excessive response of the PMN granulocytes may be the cause of a painful inflammation and is also accompanied by a reduction in the level of cyclic adenosine monophosphate (cAMP) in these granulocytes. […] The reaction is then stopped by addition of 1 ml of propanol. After centrifugation at 15,000 g for 3 minutes, the supernatant is recovered and evaporated and the amount of cAMP in the residue is determined by radioimmunological assay according to the process recommended by the supplier of the reagent used for this purpose (Amersham). A control test is carried out under the same conditions, but in the absence of the compound to be tested.

[3] = tested on: bronchospasm induced by acetylcholine; test: bronchospasmolytic activity (Konzett and Roessler), bronchospasm induced by acetylcholine; assay type: in vivo, Dunkin-Hartley guinea-pig; settings: Cavia porcellus; intravenous; acetylcholine-induced bronchospasm; read-out: Doses (ID50), Acetylcholine
Experimental: as §1

[4] = toxicity, Irwin's test; assay type: in vivo; settings: i.p.; death of two animals out of three within 48 hours
Experimental: Progressive doses of the compound to be tested are administered intraperitoneally to groups of three mice until the lethal dose is reached (dose which causes the death of two animals out of three within 48 hours).

[5] = multiple-trial passive avoidance: learning; assay type: in vivo, male Sprague-Dawley rats
Experimental: To evaluate whether a compound can promote learning, the following test is carried out. […] Rats which remain on the mat for this period have acquired the avoidance reflex and are replaced in their original cage without receiving the electric shock. […] The results obtained in the test used to evaluate learning are given in columns 3 and 4. […] The results were analyzed by the Student test.

[6] = tested on: serotonergic activity; test: "wet dog shake" (WDS) behavior, serotonergic activity; assay type: in vivo, male Sprague-Dawley rats; settings: counted over 30 minutes
Experimental: A decrease in serotonergic activity has been correlated with the occurrence of affective disorders, such as depression and anxiety. […] The test is carried out in the morning on male Sprague-Dawley rats (±180 g), divided the previous day into groups of 8 animals in residence cages. The cage used for the tests is a transparent enclosure of 12×24×30 cm in height, the floor of which is covered with a layer of sand. The compounds to be tested, dissolved either in physiological salt solution or in a citrate buffer of pH 5, are administered intraperitoneally in a different dose for each group treated. The control groups receive an intraperitoneal injection of the same vehicle (either physiological salt solution or citrate buffer). […] The mean values of the results are calculated and analyzed statistically by the Mann-Whitney method. The mean values of the number of shakes obtained for the compounds according to the invention administered intraperitoneally at the doses indicated (in mg/kg) are given in Table V below.

Row | SMILES | ED50 [1] | Amount of cAMP produced [2] | ED50 [3] | Lethal dose [4] | Average number of shakes ([6]; 1.0 mg/kg i.p.) | other results
1 | CCCc1nc(NC2CC2)nc(N2CCOCC2)n1 [Compound 1, 2-Cyclopropylamino-4-morpholino-6-n-propyl-1,3,5-triazine] | 0.01 µmol/kg | 21.0 picomoles per 10^7 cells | 0.1 µmol/kg | 898 mg/kg | 7.8 ± 1.6 shakes | Learning, average number of trials, group 2 ([5]; 3.0 mg/kg i.p.): 1.4 trials
2 | CCc1nc(NC2CC2)nc(N2CCOCC2)n1 [Compound 2] | 0.5 µmol/kg | – | 0.5 µmol/kg | 285 mg/kg | 10.0 ± 3.5 shakes | Learning, average number of trials, group 2 ([5]; 1.0 mg/kg i.p.): 2.7 trials
3 | C1CN(c2nc(NC3CC3)nc(C3CC3)n2)CCO1.Cl [Compound 3, 2-cyclopropyl-4-cyclopropylamino-6-morpholino-1,3,5-triazine hydrochloride] | 0.1 µmol/kg | 23.2 picomoles per 10^7 cells | 0.07 µmol/kg | 297.8 mg/kg | 11.9 ± 2.7 shakes | Learning, average number of trials, group 2 ([5]; 1.0 mg/kg i.p.): 1.9 trials; Average number of shakes ([6]; 0.3 mg/kg i.p.): 5.1 ± 1.0 shakes
4 | C1CC(c2nc(NC3CC3)nc(N3CCOCC3)n2)C1 [Compound 4, 2-cyclobutyl-4-cyclopropylamino-6-morpholino-1,3,5-triazine] | 0.03 µmol/kg | 17.7 picomoles per 10^7 cells | 0.03 µmol/kg | 165 mg/kg | – | Learning, average number of trials, group 2 ([5]; 2.8 mg/kg i.p.): 1.9 trials; Average number of shakes ([6]; 2.8 mg/kg i.p.): 10.6 ± 4.3 shakes
5 | CCCc1nc(NC2CC2)nc(N2CCC(O)CC2)n1 [Compound 5] | 0.1 µmol/kg | 11.6 picomoles per 10^7 cells | 0.1 µmol/kg | 277.4 mg/kg | – | Learning, average number of trials, group 2 ([5]; 2.8 mg/kg i.p.): 2.3 trials; Average number of shakes ([6]; 2.8 mg/kg i.p.): 8.4 ± 1.6 shakes
6 | CCCc1nc(NC2CC2)nc(N(CCO)CCO)n1 [Compound 6] | 0.1 µmol/kg | 14.6 picomoles per 10^7 cells | 0.3 µmol/kg | 635.6 mg/kg | 1.9 ± 0.5 shakes | –
7 | OCCN(CCO)c1nc(NC2CC2)nc(C2CC2)n1 [Compound 7] | 0.4 µmol/kg | 15.8 picomoles per 10^7 cells | 0.7 µmol/kg | 279.3 mg/kg | – | Learning, average number of trials, group 2 ([5]; 2.8 mg/kg i.p.): 1.9 trials; Average number of shakes ([6]; 2.8 mg/kg i.p.): 7.9 ± 1.8 shakes
8 | CCCc1nc(NC2CC2)nc(N2CC3CCC(C2)O3)n1 [Compound 11] | 0.1 µmol/kg | 16.2 picomoles per 10^7 cells | 0.09 µmol/kg | 325.8 mg/kg | – | Learning, average number of trials, group 2 ([5]; 3.3 mg/kg i.p.): 1.8 trials; Average number of shakes ([6]; 1.1 mg/kg i.p.): 4.3 ± 1.4 shakes
9 | CC(C)c1nc(NC2CC2)nc(N2CC3CCC(C2)O3)n1 [Compound 12] | 0.06 µmol/kg | 16.8 picomoles per 10^7 cells | 0.2 µmol/kg | 325.8 mg/kg | – | Learning, average number of trials, group 2 ([5]; 1.0 mg/kg i.p.): 1.7 trials
10 | OC1CN(c2nc(NC3CC3)nc(C3CC3)n2)C1 [Compound 13] | 0.6 µmol/kg | – | 1.3 µmol/kg | 247.3 mg/kg | – | Learning, average number of trials, group 2 ([5]; 2.5 mg/kg i.p.): 2.1 trials; Average number of shakes ([6]; 2.5 mg/kg i.p.): 5.6 ± 1.8 shakes
11 | COC1CN(c2nc(NC3CC3)nc(C3CC3)n2)C1 [Compound 14] | 0.2 µmol/kg | – | 0.5 µmol/kg | 156.8 mg/kg | – | Learning, average number of trials, group 2 ([5]; 2.6 mg/kg i.p.): 1.5 trials; Average number of shakes ([6]; 0.8 mg/kg i.p.): 2.1 ± 0.7 shakes
12 | C1CC1Nc1nc(C2CC2)nc(N2CC3CCC(C2)O3)n1 [Compound 16] | 0.009 µmol/kg | – | 0.05 µmol/kg | 194 mg/kg | 10.6 ± 1.8 shakes | Learning, average number of trials, group 2 ([5]; 3.25 mg/kg i.p.): 2.2 trials
